Assay results published in patent US10072122B2, “Carbonate polymer containing a functional group of disulfide five-membered ring in the side chain and application thereof” (BrightGene Bio-Medical Technology Co., Ltd, priority 2014, dated 2018).
Where a name gives a salt, the structure may show the parent alone.

Assays:
[1] = blood circulation of cross-linked nanoparticle loaded drug in mice; assay type: in vivo, C57BL/6 mice; details: i.v. 10 mg/kg DOX
Method: (§1) Mice were intravenously injected with nanoparticle loaded drug and free drug, and DOX was 10 mg/kg. 10 μL of blood was taken at different time points of 0, 0.25, 0.5, 1, 2, 4, 8, 12 and 24 h, and the weight of blood was calculated with the method of balance. The blood samples upon withdrawing were immediately dissolved in 100 μL 1% triton and 500 μL of extraction solution DMF (containing 1M HCl and 20 mM DTT). Taken the supernatant by centrifugation (20000 rpm, 20 min). The DOX level in the supernatant of each time was determined by fluorometry.

[2] = system: B16 melanoma tumor; assay: biodistribution in mice bearing melanoma tumors; assay type: in vivo, C57BL/6 mice; details: i.v. 10 mg/kg DOX
Method: (§2) Mice were intravenously injected with nanoparticle loaded drug and DOX (DOX was 10 mg/kg) when the tumor volume reached 100-200 mm^3 about two weeks. The mice were sacrificed at 6, 12 or 24 h and the tumor and organs of heart, liver, spleen, lung and kidney were collected, wet weighed, then 500 μL 1% triton was added, homogenized and extracted by 900 μL DMF solution (containing 1 mM HCl and 20 mM DTT). Taken the supernatant by centrifugation (20000 rpm, 20 min). The DOX level at each time was determined by fluorescence measurement.

[3] = system: B16 melanoma tumor; assay: therapeutic efficacy in mice bearing melanoma tumors; assay type: in vivo, C57BL/6 mice; details: DOX 10 mg/kg
[4] = system: U87MG human glioma cells; assay: therapeutic efficacy in mice bearing human glioma cells
Method: Aged 4 to 6 weeks old, weight 18 to 20 g Balb/C mice (Shanghai Institutes for Biological Sciences Laboratory Animal Center) were collected. They were evenly divided into groups after weighting. U87MG human glioma cells of 5×10^6 cells were generated by subcutaneous injection into the hind flank of the mice. Mice were intravenously injected with cRGD20/CLPs, CLPs, targeting decross-linked nanoparticle vesicle (cRGD20/PEG-PTMC), DOX.HCl and PBSat 0, 4, 8.12 day when the tumor volume reached 30 to 50 mm^3 about two weeks, where the DOX proportion was 10 mg/kg. The tumor size was measured every two days using calipers from 0 to 18 day. The tumor size was calculated by V=(L*W*H)/2 (L was length of tumor, W was width of tumor, H was thickness of tumor). Continue to observe the survival of mice until 45 day.

[5] = blood circulation of targeting cross-linked vesicle loaded drug in mice; assay type: in vivo, Balb/C mice; details: i.v. 10 mg/kg DOX
Method: as §1, with “The vesicle was formed with different ratio of cRGD-PEG6k-P(CDC4.6k-co-TMC18.6k) and PEG5k-P(CDC4.9k-co-TMC19k). […] Mice” for “Mice”, “targeting vesicle” for “nanoparticle”, “drug cRGD20/CLPs, vesicle loaded drug CLPs, targeting decross-linked vesicle cRGD20/PEG-PTMC” for “drug”, “DOX.HCl as control (the” for “free drug, and”, “mg/kg).” for “mg/kg.”

[6] = biodistribution in mice bearing human glioma cells; assay type: in vivo; details: Balb/C, mouse, tumor, iv, i.v. 10 mg/kg DOX, read-out: accumulation of DOX in tumor
Method: as §2, with “The” for “Mice were intravenously injected with nanoparticle loaded drug and DOX (DOX was 10 mg/kg) when the tumor volume reached 100-200 mm^3 about two weeks. The”, “4” for “6, 12 or 24”

[7] = system: B16 melanoma tumor; assay: therapeutic efficacy of iRGD targeting cross-linked vesicles in mice bearing melanoma tumors; assay type: in vivo, C57BL/6 mice
Method: The tumor size was measured every day using calipers from 0 to 20 day.

SMILES | half-lives of eliminate in mice ([1]; C57BL/6 mice) | DOX in blood ([1]; at 2 h) | accumulation in tumor ([2]; 6 h) | accumulation in tumor ([2]; 12 h) | accumulation in tumor ([2]; 24 h) | tumor growth [3] | survival rate ([3]; 10 days) | body weight reduced ([3]; at 7 day) | tumor growth ([4]; 10 mg/kg DOX at 0, 4, 8, 12 day, 18 day) | declining of body weight ([4]; 10 mg/kg, at 12 day) | survival rate ([4]; 13 days) | DOX in blood ([5]; at 2 h) | half-life ([5]; mouse, whole blood, iv, Balb/C mice, read-out: half-lives of eliminate in mice (converted)) | tissue uptake at 4 h [6] | tumor growth ([7]; 10 mg/kg DOX.HCl at 0, 3, 6, 9, 12 day, 20 day) | declining of body weight ([7]; 10 mg/kg, at 8 day) | survival rate ([7]; 10 days)
COc1cccc2c1C(=O)c1c(O)c3c(c(O)c1C2=O)C[C@@](O)(C(=O)CO)C[C@@H]3O[C@H]1C[C@H](N)[C@H](O)[C@H](C)O1 [DOX, Doxorubicin] | 0.21 h | can not detection | 1.05 ID %/g | 0.52 ID %/g | 0.29 ID %/g | can inhibited tumor growth | 0 | 23% | – | – | – | – | – | – | – | – | –
COc1cccc2c1C(=O)c1c(O)c3c(c(O)c1C2=O)C[C@@](O)(C(=O)CO)C[C@@H]3O[C@H]1C[C@H](N)[C@H](O)[C@H](C)O1 [DOX.HCl, doxorubicin hydrochloride] | – | – | – | – | – | – | – | – | can inhibited tumor growth | 21% | 0 | can not detection | 16.2 min | 0.82 %ID/g | can inhibit tumor growth | 20% | 0
